Results reported in patent US20110082130A1 (LIGAND PHARMACEUTICALS, INC., priority 2006, published 2011).
Each block holds one compound with its values, some of them ahead of it.

Target: T1, chimeric human H3 receptor (Homo sapiens, UniProt Q9Y5N1)
T1 construct: made in house; host or cells: Sf9 insect cells (baculovirus); P2 membrane preparation
Experiment: Chimeric human H3 receptor GTP binding assay (agonist-stimulated GTP-gamma35S binding, Example 7)
Assay type: biochemical
Method in brief: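 Sf9 membranes co-expressing chimeric human H3 receptor and heterotrimeric G-protein, 35 μg/tube, in pH 7.4 Tris buffer with 10 μM GDP. Test compounds (10^−10–10^−6 M) competed against 1 μM histamine, […] GTP-gamma35S, 60 min at room temperature. Filter-bound radioactivity counted; IC50 converted to Ki by Cheng-Prusoff. Agonism/inverse agonism tested without histamine (EC50).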

[1] = Table II "Ki", symbol *, assay of Example 7
[2] = Table II, "*" = Ki in assay of Example 7 less than 1 micromolar
[3] = Table I, P2 membranes of Sf9 cells, 1 μM histamine as agonist, Ki from IC50 by Cheng-Prusoff
[4] = assay of Example 7, "*" in Ki of Table II

T1 sequence (Q9Y5N1 with tags, fused parts or gaps): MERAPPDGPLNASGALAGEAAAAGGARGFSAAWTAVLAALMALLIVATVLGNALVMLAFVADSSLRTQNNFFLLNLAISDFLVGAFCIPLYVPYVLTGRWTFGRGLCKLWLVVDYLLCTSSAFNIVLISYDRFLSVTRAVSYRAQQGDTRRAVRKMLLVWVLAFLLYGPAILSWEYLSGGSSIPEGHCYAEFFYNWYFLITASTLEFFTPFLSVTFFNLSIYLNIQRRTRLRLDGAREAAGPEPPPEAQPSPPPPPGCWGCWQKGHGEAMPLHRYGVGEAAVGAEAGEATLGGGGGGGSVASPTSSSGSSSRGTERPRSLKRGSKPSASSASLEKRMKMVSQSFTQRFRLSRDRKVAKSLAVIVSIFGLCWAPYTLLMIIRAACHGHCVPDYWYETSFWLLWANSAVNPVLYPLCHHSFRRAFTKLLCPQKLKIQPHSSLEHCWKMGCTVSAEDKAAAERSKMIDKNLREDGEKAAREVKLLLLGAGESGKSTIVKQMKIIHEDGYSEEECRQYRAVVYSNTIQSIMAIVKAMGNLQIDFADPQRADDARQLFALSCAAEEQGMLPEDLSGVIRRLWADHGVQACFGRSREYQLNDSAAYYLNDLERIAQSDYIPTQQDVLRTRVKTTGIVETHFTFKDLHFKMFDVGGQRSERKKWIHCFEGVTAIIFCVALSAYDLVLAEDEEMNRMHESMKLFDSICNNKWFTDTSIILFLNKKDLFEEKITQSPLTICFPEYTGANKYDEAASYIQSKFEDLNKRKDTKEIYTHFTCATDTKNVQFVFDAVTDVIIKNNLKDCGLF

Ki [1]: < 1000 nM
Structure (SMILES): CCC(CC)Nc1ccc2c(n1)CCN(CC(=O)N1CCN(C3CCC3)CC1)C2 [Compound 662, 6-[2-(4-cyclobutylpiperazin-1-yl)-2-oxoethyl]-N-(1-ethylpropyl)-5,6,7,8-tetrahydro-1,6-naphthyridin-2-amine]

Ki [2]: < 1000 nM
Structure (SMILES): O=C(CN1CCc2nc(N3CCCC3)ncc2C1)N1CCN(C2CCC2)CC1 [Compound 204, 6-[2-(4-cyclobutylpiperazin-1-yl)-2-oxoethyl]-2-pyrrolidin-1-yl-5,6,7,8-tetrahydropyrido[4,3-d]pyrimidine]

Ki [2]: < 1000 nM
Structure (SMILES): O=C(CN1CCc2nc(-c3cncnc3)ccc2C1)N1CCN(C2CCC2)CC1 [Compound 171, 6-[2-(4-cyclobutylpiperazin-1-yl)-2-oxoethyl]-2-pyrimidin-5-yl-5,6,7,8-tetrahydro-1,6-naphthyridine]

Ki [2]: < 1000 nM
Structure (SMILES): CC1CCCN1C(=O)c1ccc2c(c1)CCN(CC(=O)N1CCN(C3CCC3)CC1)C2 (centres unmarked) [Compound 87, 2-[2-(4-cyclobutylpiperazin-1-yl)-2-oxoethyl]-6-[(2-methylpyrrolidin-1-yl)carbonyl]-1,2,3,4-tetrahydroisoquinoline]

Ki [2]: < 1000 nM
Structure (SMILES): O=C(CN1CCc2cc(N3CCOC3=O)ccc2C1)N1CCN(C2CCC2)CC1 [Compound 210, 3-{2-[2-(4-cyclobutylpiperazin-1-yl)-2-oxoethyl]-1,2,3,4-tetrahydroisoquinolin-6-yl}-1,3-oxazolidin-2-one]

Ki (Table II, assay of Example 7): < 1000 nM
Structure (SMILES): Cc1nc(N2CCOCC2)nc2c1CN(CC(=O)N1CCN(C3CCC3)CC1)CC2 [Compound 692, 6-[2-(4-cyclobutylpiperazin-1-yl)-2-oxoethyl]-4-methyl-2-morpholin-4-yl-5,6,7,8-tetrahydropyrido[4,3-d]pyrimidine]

Ki (Table II, assay of Example 7): < 1000 nM
Structure (SMILES): O=C(CN1CCc2nn(C3CCCC3)cc2C1)N1CCN(C2CCC2)CC1 [Compound 684, 5-[2-(4-cyclobutylpiperazin-1-yl)-2-oxoethyl]-2-cyclopentyl-4,5,6,7-tetrahydro-2H-pyrazolo[4,3-c] pyridine]

Ki [1]: < 1000 nM
Structure (SMILES): CCOCCNc1ccc2c(n1)CCN(CC(=O)N1CCN(C3CCC3)CC1)C2 [Compound 667, 6-[2-(4-cyclobutylpiperazin-1-yl)-2-oxoethyl]-N-(2-ethoxyethyl)-5,6,7,8-tetrahydro-1,6-naphthyridin-2-amine]

Ki [2]: < 1000 nM
Structure (SMILES): O=C(CN1CCc2nc(N3CCOCC3)ncc2C1)N1CCN(C2CCC2)CC1 [Compound 139, 6-[2-(4-cyclobutylpiperazin-1-yl)-2-oxoethyl]-2-morpholin-4-yl-5,6,7,8-tetrahydropyrido[4,3-d]pyrimidine]

Ki [1]: < 1000 nM
Structure (SMILES): COC1CCN(c2ccc3c(n2)CCN(CC(=O)N2CCN(C4CCC4)CC2)C3)CC1 [Compound 681, 6-[2-(4-cyclobutylpiperazin-1-yl)-2-oxoethyl]-2-(4-methoxypiperidin-1-yl)-5,6,7,8-tetrahydro-1,6-naphthyridine]

Ki [2]: < 1000 nM
Structure (SMILES): O=C(CN1CCc2nc(N3CCCCC3)ncc2C1)N1CCN(C2CCCC2)CC1 [Compound 156, 6-[2-(4-cyclopentylpiperazin-1-yl)-2-oxoethyl]-2-piperidin-1-yl-5,6,7,8-tetrahydropyrido[4,3-d]pyrimidine]

Ki [2]: < 1000 nM
Structure (SMILES): O=C(CN1CCc2nc(-c3cccnn3)ccc2C1)N1CCN(C2CCC2)CC1 [Compound 172, 6-[2-(4-cyclobutylpiperazin-1-yl)-2-oxoethyl]-2-pyridazin-3-yl-5,6,7,8-tetrahydro-1,6-naphthyridine]

The remaining lines, values behind:

Structure (SMILES): O=C(CN1CCc2cc(-c3nccs3)ccc2C1)N1CCN(C2CCC2)CC1 [Compound 120, 2-[2-(4-cyclobutylpiperazin-1-yl)-2-oxoethyl]-6-(1,3-thiazol-2-yl)-1,2,3,4-tetrahydroisoquinoline]
Ki [2]: < 1000 nM

Structure (SMILES): CCC(=O)c1ccc2c(c1)CCN(CC(=O)N1CCN(C3CCC3)CC1)C2 [Compound 73, 1-{2-[2-(4-cyclobutylpiperazin-1-yl)-2-oxoethyl]-1,2,3,4-tetrahydroisoquinolin-6-yl}propan-1-one]
Ki [3]: < 1000 nM

Structure (SMILES): O=C(CN1CCc2cc(-n3ncc4ccccc43)ccc2C1)N1CCN(C2CCC2)CC1 [Compound 230, 2-[2-(4-cyclobutylpiperazin-1-yl)-2-oxoethyl]-6-(1H-indazol-1-yl)-1,2,3,4-tetrahydroisoquinoline]
Ki [2]: < 1000 nM

Structure (SMILES): COc1cc(-c2ccc3c(c2)CCN(CC(=O)N2CCN(C4CCCC4)CC2)C3)cc(OC)c1OC [Compound 517, 2-[2-(4-cyclopentylpiperazin-1-yl)-2-oxoethyl]-6-(3,4,5-trimethoxyphenyl)-1,2,3,4-tetrahydroisoquinoline]
Ki [1]: < 1000 nM

Structure (SMILES): O=C(CN1CCc2nc(-c3cncnc3)sc2C1)N1CCCC1CN1CCCC1 (centres unmarked) [Compound 110, 5-{2-oxo-2-[2-(pyrrolidin-1-ylmethyl)pyrrolidin-1-yl]ethyl}-2-pyrimidin-5-yl-4,5,6,7-tetrahydro[1,3] thiazolo [5,4-c]pyridine]
Ki [2]: < 1000 nM

Structure (SMILES): CC(=O)c1ccc(-c2ncc3c(n2)CCN(CC(=O)N2CCN(C4CCC4)CC2)C3)cc1 [Compound 71, 1-(4-{6-[2-(4-cyclobutylpiperazin-1-yl)-2-oxoethyl]-5,6,7,8-tetrahydropyrido[4,3-d]pyrimidin-2-yl}phenyl)ethanone]
Ki [3]: < 1000 nM

Structure (SMILES): O=C(CN1CCc2nc(-c3cccc(F)c3)sc2C1)N1CCN(C2CCC2)CC1 [Compound 298, 5-[2-(4-cyclobutylpiperazin-1-yl)-2-oxoethyl]-2-(3-fluorophenyl)-4,5,6,7-tetrahydro[1,3]thiazolo [5,4-c]pyridine]
Ki [4]: < 1000 nM

Structure (SMILES): COc1cccc(-c2ccc3c(c2)CCN(CC(=O)N2CCN(C4CCCC4)CC2)C3)c1 [Compound 476, 2-[2-(4-cyclopentylpiperazin-1-yl)-2-oxoethyl]-6-(3-methoxyphenyl)-1,2,3,4-tetrahydroisoquinoline]
Ki [4]: < 1000 nM

Structure (SMILES): Cc1cnc(-n2cc3c(n2)CCN(CC(=O)N2CCN(C4CCC4)CC2)C3)nc1 [Compound 289, 5-[2-(4-cyclobutylpiperazin-1-yl)-2-oxoethyl]-2-(5-methylpyrimidin-2-yl)-4,5,6,7-tetrahydro-2H-pyrazolo[4,3-c]pyridine]
Ki [4]: < 1000 nM

Structure (SMILES): O=C(CN1CCc2nc(-c3ccc4ccccc4c3)sc2C1)N1CCN(C2CCC2)CC1 [Compound 300, 5-[2-(4-cyclobutylpiperazin-1-yl)-2-oxoethyl]-2-(2-naphthyl)-4,5,6,7-tetrahydro[1,3]thiazolo [5,4-c]pyridine]
Ki [4]: < 1000 nM

Structure (SMILES): CC(=O)c1ccc(-c2ccc3c(c2)CCN(CC(=O)N2CCN(C4CCC4)CC2)C3)cc1 [Compound 67, 1-(4-{2-[2-(4-cyclobutylpiperazin-1-yl)-2-oxoethyl]-1,2,3,4-tetrahydroisoquinolin-6-yl}phenyl)ethanone]
Ki [3]: < 1000 nM

Structure (SMILES): N#Cc1cccc(-c2nc3c(s2)CN(CC(=O)N2CCN(C4CCC4)CC2)CC3)c1 [Compound 367, 3-{5-[2-(4-cyclobutylpiperazin-1-yl)-2-oxoethyl]-4,5,6,7-tetrahydro[1,3]thiazolo [5,4-c]pyridin-2-yl}benzonitrile]
Ki [4]: < 1000 nM

Structure (SMILES): O=C(CN1CCc2nc(-c3ccc4c(c3)OCO4)sc2C1)N1CCN(C2CCC2)CC1 [Compound 328, 2-(1,3-benzodioxol-5-yl)-5-[2-(4-cyclobutylpiperazin-1-yl)-2-oxoethyl]-4,5,6,7-tetrahydro[1,3]thiazolo [5,4-c]pyridine]
Ki [4]: < 1000 nM

Structure (SMILES): O=C(CN1CCc2nc(-c3ccccc3Cl)sc2C1)N1CCN(C2CCC2)CC1 [Compound 357, 2-(2-chlorophenyl)-5-[2-(4-cyclobutylpiperazin-1-yl)-2-oxoethyl]-4,5,6,7-tetrahydro[1,3]thiazolo [5,4-c]pyridine]
Ki [4]: < 1000 nM
